Laboratory results published in US10201533B2, “Substituted quinolizine derivatives useful as HIV integrase inhibitors” (priority 2013, dated 2019).
Like-named read-outs stand apart in the source and are kept apart here.

System: HIV-1 (NL4-3 strain)
Test: microbe, parasite or virus in culture
Type: cell-based
Details: MT4-GFP cells infected with HIV-1 NL4-3, IP or IC50 from 4-parameter dose response curve
[1] = Human immunodeficiency virus 1, NL43, 0% normal human serum (NHS), read-out: WILD TYPE CELL ASSAY Viking IP (0% NHS)
[2] = Human immunodeficiency virus 1, NL43, 100% normal human serum (NHS), read-out: WILD TYPE CELL ASSAY Viking IP (100% NHS)
[3] = 0% normal human serum (NHS), read-out: WILD TYPE CELL ASSAY Viking IP (0% NHS)
[4] = 100% normal human serum (NHS), read-out: WILD TYPE CELL ASSAY Viking IP (100% NHS)

| Structure (SMILES) | IC50 [1] | IC50 [2] | IC50 [3] | IC50 [4] |
| --- | --- | --- | --- | --- |
| C[C@]12CCCO[C@@H]1Cn1cc(C(=O)NCc3ccc(F)cc3F)c(=O)c(O)c1C2=O (racemic) [Compound 9] | 2.6 nM | 235 nM | – | – |
| CC1(O)CCn2cc(C(=O)NCc3ccc(F)cc3F)c(=O)c(O)c2C1=O (racemic) [Compound 53] | 64 nM | > 8400 nM | – | – |
| C[C@@]12CCCO[C@@H]1Cn1cc(C(=O)NCc3c(F)cc(F)cc3F)c(=O)c(O)c1C2=O (single isomer, unassigned) [Compound 14] | 0.7 nM | 26 nM | – | – |
| C[C@@]12CCCO[C@@H]1Cn1cc(C(=O)NCc3cccc(Cl)c3F)c(=O)c(O)c1C2=O (single isomer, unassigned) [Compound 15] | 0.5 nM | 73 nM | – | – |
| C[C@@]12CCCO[C@@H]1Cn1cc(C(=O)NCc3ccc(F)c(Cl)c3)c(=O)c(O)c1C2=O (single isomer, unassigned) [Compound 16] | 4.1 nM | 257 nM | – | – |
| C[C@@]12CCCO[C@@H]1Cn1cc(C(=O)NCc3ccc(F)c(F)c3F)c(=O)c(O)c1C2=O (single isomer, unassigned) [Compound 17] | 2.9 nM | 117 nM | – | – |
| C[C@@]12CCCO[C@@H]1Cn1cc(C(=O)NCc3ccc(F)cc3)c(=O)c(O)c1C2=O (single isomer, unassigned) [Compound 18] | 8.7 nM | 315 nM | – | – |
| C[C@]12CCCO[C@H]1Cn1cc(C(=O)NCc3ccc(F)cc3)c(=O)c(O)c1C2=O (single isomer, unassigned) [Compound 19] | 4.6 nM | 709 nM | – | – |
| C[C@]12CCCO[C@H]1Cn1cc(C(=O)NCc3ccc(F)c(F)c3F)c(=O)c(O)c1C2=O (single isomer, unassigned) [Compound 20] | 3.5 nM | 839 nM | – | – |
| C[C@]12CCCO[C@H]1Cn1cc(C(=O)NCc3ccccc3F)c(=O)c(O)c1C2=O (single isomer, unassigned) [Compound 21] | 2.4 nM | 385 nM | – | – |
| C[C@]12CCCO[C@H]1Cn1cc(C(=O)NCc3c(F)cccc3F)c(=O)c(O)c1C2=O (single isomer, unassigned) [Compound 22] | 2.7 nM | 251 nM | – | – |
| C[C@]12CCCO[C@H]1Cn1cc(C(=O)NCc3c(F)cc(F)cc3F)c(=O)c(O)c1C2=O (single isomer, unassigned) [Compound 23] | 1.5 nM | 1260 nM | – | – |
| Cc1cc(CNC(=O)c2cn3c(c(O)c2=O)C(=O)[C@@]2(C)CCCO[C@H]2C3)ccc1F (single isomer, unassigned) [Compound 24] | 4.3 nM | > 8400 nM | – | – |
| C[C@]12CCCO[C@H]1Cn1cc(C(=O)NCc3ccc(F)c(Br)c3)c(=O)c(O)c1C2=O (single isomer, unassigned) [Compound 25] | 4.2 nM | > 8400 nM | – | – |
| C[C@]12CCCO[C@H]1Cn1cc(C(=O)NCc3cccc(Cl)c3F)c(=O)c(O)c1C2=O (single isomer, unassigned) [Compound 26] | 1.1 nM | 2550 nM | – | – |
| Cc1c(F)ccc(CNC(=O)c2cn3c(c(O)c2=O)C(=O)[C@@]2(C)CCCO[C@H]2C3)c1F (single isomer, unassigned) [Compound 27] | 2 nM | > 8400 nM | – | – |
| C[C@]12CCCO[C@H]1Cn1cc(C(=O)NCc3cc(F)c(F)c(F)c3)c(=O)c(O)c1C2=O (single isomer, unassigned) [Compound 28] | 4.4 nM | > 8400 nM | – | – |
| C[C@]12CCCO[C@H]1Cn1cc(C(=O)NCc3ccc4c(c3)OCO4)c(=O)c(O)c1C2=O (single isomer, unassigned) [Compound 29] | 17 nM | > 8400 nM | – | – |
| C[C@]12CCCO[C@H]1Cn1cc(C(=O)NCc3ccc(F)c(Cl)c3)c(=O)c(O)c1C2=O (single isomer, unassigned) [Compound 30] | 2.8 nM | > 8400 nM | – | – |
| COc1ncc(CNC(=O)c2cn3c(c(O)c2=O)C(=O)[C@@]2(C)CCCO[C@H]2C3)cc1Cl (single isomer, unassigned) [Compound 32] | 8.2 nM | > 8400 nM | – | – |

| Structure (SMILES) | IC50 [1] | IC50 [2] | IC50 [3] | IC50 [4] |
| --- | --- | --- | --- | --- |
| C[C@]12CCCO[C@@H]1Cn1cc(C(=O)NCc3ccc(F)cc3F)c(=O)c(O)c1C2=O (single isomer, unassigned) [Compound 33] | – | – | 0.5 nM | 281 nM |
| C[C@]12CCCO[C@@H]1Cn1cc(C(=O)NCc3ccc(F)cc3F)c(=O)c(O)c1C2=O (single isomer, unassigned) [Compound 34] | – | – | 1.7 nM | 1500 nM |
| C[C@]12CCCO[C@@H]1Cn1cc(C(=O)NCc3cccc(Cl)c3F)c(=O)c(O)c1C2=O (single isomer, unassigned) [Compound 35] | 0.4 nM | – | – | 337 nM |
| C[C@]12CCCO[C@@H]1Cn1cc(C(=O)NCc3cccc(Cl)c3F)c(=O)c(O)c1C2=O (single isomer, unassigned) [Compound 36] | – | – | 0.6 nM | 1400 nM |
| C[C@@]12CCCCO[C@@H]1Cn1cc(C(=O)NCc3ccc(F)cc3F)c(=O)c(O)c1C2=O (single isomer, unassigned) [Compound 39] | 0.8 nM | – | – | 33 nM |
| C[C@@]12CCCCO[C@@H]1Cn1cc(C(=O)NCc3ccc(F)cc3F)c(=O)c(O)c1C2=O (single isomer, unassigned) [Compound 40] | – | – | 1.5 nM | 442 nM |
| C[C@@]12CCCCO[C@@H]1Cn1cc(C(=O)NCc3c(F)cc(F)cc3F)c(=O)c(O)c1C2=O (single isomer, unassigned) [Compound 41] | 2 nM | – | – | 34 nM |
| C[C@@]12CCCCO[C@@H]1Cn1cc(C(=O)NCc3c(F)cc(F)cc3F)c(=O)c(O)c1C2=O (single isomer, unassigned) [Compound 42] | – | – | 2.1 nM | 517 nM |
| C[C@]12CCCCO[C@@H]1Cn1cc(C(=O)NCc3ccc(F)cc3F)c(=O)c(O)c1C2=O (single isomer, unassigned) [Compound 43] | 3.2 nM | – | – | 2000 nM |
| C[C@]12CCCCO[C@@H]1Cn1cc(C(=O)NCc3ccc(F)cc3F)c(=O)c(O)c1C2=O (single isomer, unassigned) [Compound 44] | – | – | 1.9 nM | 316 nM |
| C[C@]12CCCCO[C@@H]1Cn1cc(C(=O)NCc3cccc(Cl)c3F)c(=O)c(O)c1C2=O (single isomer, unassigned) [Compound 45] | 2.3 nM | – | – | 4750 nM |
| C[C@]12CCCCO[C@@H]1Cn1cc(C(=O)NCc3cccc(Cl)c3F)c(=O)c(O)c1C2=O (single isomer, unassigned) [Compound 46] | – | – | 1.3 nM | 459 nM |
| CC1(C)CCn2cc(C(=O)NCc3ccc(F)cc3)c(=O)c(O)c2C1=O [Compound 2] | 27 nM | – | – | – |
| CC1(C)CCn2cc(C(=O)NCc3cc4ccccn4n3)c(=O)c(O)c2C1=O [Compound 3] | 6.5 nM | – | – | – |
| CC1(C)C(=O)c2c(O)c(=O)c(C(=O)NCc3ccc(F)cc3F)cn2CC1O (stereo not drawn) [Compound 4] | 74 nM | 1850 nM | – | – |
| COC1Cn2cc(C(=O)NCc3ccc(F)cc3F)c(=O)c(O)c2C(=O)C1(C)C (stereo not drawn) [Compound 5] | 2.6 nM | 102 nM | – | – |
| COc1c2n(cc(-c3nnc(Cc4ccc(F)cc4F)s3)c1=O)CC(OC)C(C)(C)C2=O (stereo not drawn) [Compound 6] | – | – | 10 nM | – |
| C[C@]12CCCO[C@H]1Cn1cc(C(=O)NCc3ccc(F)cc3F)c(=O)c(O)c1C2=O [Compound 7] | 2.2 nM | – | – | 154 nM |
| C[C@]12CCCO[C@H]1Cn1cc(C(=O)NCc3ccc(F)cc3F)c(=O)c(O)c1C2=O [Compound 8] | – | – | 1.8 nM | 500 nM |
